Laboratory results: US4195171A, “Derivatives of an antibiotic XK-62-2 and process for the production thereof” (Abbott Laboratories, priority 1975, dated 1980)
Converted amounts (≈) assume the structure as drawn.

What was measured:
[1] = tested on: Escherichia coli KY 8349; assay: Antibacterial spectrum, MIC by agar dilution method; type: cell-based; settings: KY8349, pH 7.2, strain produces neomycinkanamycin phosphotransferase Type I, read-out: Minimum Inhibitory Concentration
From the text: (§1) XK-62-2, 1-N-[L-(-)-α-hydroxy-γ-aminobutyryl] XK-62-2, Compounds (I-1), (I-2), (II-1) and (II-2) against various Gram-negative and Gram-positive bacteria determined by agar dilution method at pH 7.2.
(§2) ^3 produces neomycinkanamycin phosphotransferase Type I

[2] = tested on: Escherichia coli KY 8320; assay: as above; type: cell-based; settings: KY8320, pH 7.2, strain produces neomycinkanamycin phosphotransferase Type I, read-out: Minimum Inhibitory Concentration
From the text: as §1, §2

[3] = tested on: Pseudomonas aeruginosa KY 8518; assay: as above; type: cell-based; settings: KY8518, pH 7.2, strain produces neomycinkanamycin phosphotransferase Type I, read-out: Minimum Inhibitory Concentration
From the text: as §1, §2

[4] = tested on: Providencia sp. 164; assay: as above; type: cell-based; settings: pH 7.2, strain produces gentamicin acetyltransferase Type II, read-out: Minimum Inhibitory Concentration
From the text: as §1
^9 produces gentamicin acetyltransferase Type II

[5] = Acute toxicity (LD50) in mice; settings: mouse, in vivo, route not stated
From the text: XK-62-2, Compounds (I-2), (II-1) and (II-2) in mice.

[6] = tested on: Proteus mirabilis 1287; assay: Antibacterial spectrum, MIC by agar dilution method; type: cell-based; settings: pH 7.2, read-out: Minimum Inhibitory Concentration
From the text: as §1

[7] = tested on: Escherichia coli T-2; assay: as above; type: cell-based; settings: T2, pH 7.2, read-out: Minimum Inhibitory Concentration
From the text: as §1

[8] = tested on: Pseudomonas aeruginosa BMH 10; assay: as above; type: cell-based; settings: BMH10, pH 7.2, read-out: Minimum Inhibitory Concentration
From the text: as §1

[9] = tested on: Escherichia coli KY 8348; assay: as above; type: cell-based; settings: KY8348, pH 7.2, strain produces gentamicin acetyltransferase Type I, read-out: Minimum Inhibitory Concentration
From the text: as §1
(§3) ^2 produces gentamicin acetyltransferase Type I

[10] = tested on: Pseudomonas aeruginosa KY 8511; assay: as above; type: cell-based; settings: KY8511, pH 7.2, strain produces gentamicin acetyltransferase Type I, read-out: Minimum Inhibitory Concentration
From the text: as §1, §3

Structure (SMILES) | MIC [1] [µg/mL] | MIC [2] [µg/mL] | MIC [3] [µg/mL] | MIC [4] [µg/mL] | LD50 [5] [mg/kg] | MIC [6] [µg/mL] | MIC [7] [µg/mL] | MIC [8] [µg/mL] | MIC [9] [µg/mL] | MIC [10] [µg/mL]
CNCC1CCC(N)C(OC2C(N)CC(NC(=O)C(O)CN)C(OC3OCC(C)(O)C(NC)C3O)C2O)O1 (racemic) [1-N-(DL-α-hydroxy-β-aminopropionyl) XK-62-2, reference compound] | 0.1 (≈ 0.182 µM) | 0.4 (≈ 0.726 µM) | 1.56 (≈ 2.83 µM) | 6.25 (≈ 11.4 µM) | 185 | 12.5 (≈ 22.7 µM) | 0.4 (≈ 0.726 µM) | 0.4 (≈ 0.726 µM) | 0.2 (≈ 0.363 µM) | 1.56 (≈ 2.83 µM)
CC1(O)COC(OC2C(NC(=O)C(O)CN)CC(N)C(OC3OC(CN)CCC3N)C2O)C(O)C1N (racemic) [Compound I-1, 3"-N, 6'-N-didemethyl-1-N-(DL-α-hydroxy-β-aminopropionyl) XK-62-2] | 0.4 (≈ 0.765 µM) | 0.78 (≈ 1.49 µM) | 0.78 (≈ 1.49 µM) | 6.25 (≈ 12 µM) |  | 12.5 (≈ 23.9 µM) | 1.56 (≈ 2.99 µM) | 0.4 (≈ 0.765 µM) | 0.4 (≈ 0.765 µM) | 0.78 (≈ 1.49 µM)
CNCC1CCC(N)C(OC2C(N)CC(NC(=O)C(O)CN)C(OC3OCC(C)(O)C(N)C3O)C2O)O1 (racemic) [II-1, 3"-N-demethyl-1-N-(DL-α-hydroxy-β-aminopropionyl) XK-62-2] | 0.4 (≈ 0.745 µM) | 1.56 (≈ 2.91 µM) | 1.56 (≈ 2.91 µM) | 25 (≈ 46.6 µM) | 175 | 25 (≈ 46.6 µM) | 1.56 (≈ 2.91 µM) | 0.4 (≈ 0.745 µM) | 0.4 (≈ 0.745 µM) | 1.56 (≈ 2.91 µM)
CNCC1CCC(N)C(OC2C(N)CC(NC(=O)C(O)CCN)C(OC3OCC(C)(O)C(NC)C3O)C2O)O1 (single isomer, unassigned) [1-N-[L-(-)-α-hydroxy-γ-aminobutyryl] XK-62-2, reference compound] | 0.1 (≈ 0.177 µM) | 0.2 (≈ 0.354 µM) | 1.56 (≈ 2.76 µM) | 6.25 (≈ 11.1 µM) | 180 | 12.5 (≈ 22.1 µM) | 0.4 (≈ 0.708 µM) | 0.4 (≈ 0.708 µM) | 0.1 (≈ 0.177 µM) | 1.56 (≈ 2.76 µM)
CC1(O)COC(OC2C(NC(=O)C(O)CCN)CC(N)C(OC3OC(CN)CCC3N)C2O)C(O)C1N (single isomer, unassigned) [Compound I-2, 3"-N, 6'-N-didemethyl-1-N-[L-(-)-α-hydroxy-γ-aminobutyryl] XK-62-2] | 0.4 (≈ 0.745 µM) | 0.78 (≈ 1.45 µM) | 0.78 (≈ 1.45 µM) | 6.25 (≈ 11.6 µM) | 200 | 12.5 (≈ 23.3 µM) | 0.78 (≈ 1.45 µM) | 0.4 (≈ 0.745 µM) | 0.4 (≈ 0.745 µM) | 0.78 (≈ 1.45 µM)
CNCC1CCC(N)C(OC2C(N)CC(NC(=O)C(O)CCN)C(OC3OCC(C)(O)C(N)C3O)C2O)O1 (single isomer, unassigned) [II-2, 3"-N-demethyl-1-N-[L-(-)-α-hydroxy-γ-aminobutyryl] XK-62-2] | 0.4 (≈ 0.726 µM) | 0.78 (≈ 1.42 µM) | 1.56 (≈ 2.83 µM) | 12.5 (≈ 22.7 µM) | 250 | 12.5 (≈ 22.7 µM) | 0.78 (≈ 1.42 µM) | 0.4 (≈ 0.726 µM) | 0.4 (≈ 0.726 µM) | 1.56 (≈ 2.83 µM)
